Test results: US8067532B2, “Modifications of peptide compositions to increase stability and delivery efficiency” (KAI Pharmaceuticals, Inc., priority 2007, dated 2011)
No end group written: not given here.

Assays:
[1] = versus KAI-9706 and KAI-9803
[2] = Plasma stability of capped peptides (KAI-9706 modified step-wise at amino and carboxy termini); assay type: in vitro ADME, rat; conditions: versus uncapped KAI-9706
Description: Plasma stability of capped peptides was compared.

brain tissue = assay: Stroke model, percent infarction; assay type: in vivo; conditions: versus uncapped KAI-9706
Method: KAI-1455 was tested in a stroke model.

[3] = versus KAI-9706 and KAI-9803; remark: listed apart in the source
[4] = versus KAI-9706 and KAI-9803; remark: listed apart in the source
cardiac tissue = assay: Langendorff assay, in vitro post-ischemia model (CK release); parameters: species or system rat; conditions: versus the unmodified form
Method: The ability of the capped composition to inhibit ischemic damage in a rat heat model (Langendorff Assay) was evaluated versus the uncapped form.

[5] = Effect of D-peptides on plasma stability of KAI-9706; conditions: All-L, scrambled or retro-inverso (R/I) carrier and cargo
Method: KAI-9706 was engineered with D-amino acids to determine their impact on peptide composition stability. Unmodified KAI-9706 was compared to a peptide composition with the same amino acid sequence, however the amino acids used were d-enantiomers instead of 1-amino acids. A retro-inverso version and a scrambled version of the peptide composition were also prepared.

[6] = In vitro biological stability of linear epsilon PKC inhibitors in human serum; assay type: in vitro ADME; conditions: LC/MS; for stability in human serum (percent remaining over time): 100 μg/ml, room temperature
Method: The peptides were then analyzed by LC/MS.

**Q.** Which “stability in human serum (percent intact over time)” value [1] does the source give for `CC[C@H](C)[C@H](NC(=O)[C@@H]1CCCN1C(=O)[C@H](C)NC(=O)[C@H](CC(=O)O)NC(=O)[C@H](Cc1c[nH]cn1)NC(=O)[C@@H](N)CSSC[C@H](NC(C)=O)C(=O)N[C@@H](Cc1ccc(O)cc1)C(=O)NCC(=O)N[C@@H](CCCNC(=N)N)C(=O)N[C@@H](CCCCN)C(=O)N[C@@H](CCCCN)C(=O)N[C@@H](CCCNC(=N)N)C(=O)N[C@@H](CCCNC(=N)N)C(=O)N[C@@H](CCC(N)=O)C(=O)N[C@@H](CCCNC(=N)N)C(=O)N[C@@H](CCCNC(=N)N)C(=O)N[C@@H](CCCNC(=N)N)C(N)=O)C(=O)NCC(=O)N[C@@H](Cc1ccc(O)cc1)C(=O)N[C@@H](CC(=O)O)C(=O)O` [KAI-1455] here?
**A.** increased plasma stability

**Q.** What about the plasma half life [2] of the same molecule?
**A.** increase the plasma half life

**Q.** And the “protection to brain tissue as judged by percent infract” value (brain tissue)?
**A.** increased protection to brain tissue

**Q.** And the “stability in rat serum (percent intact over time)” value [3]?
**A.** increased plasma stability

**Q.** And the “stability in pig serum (percent intact over time)” value [4]?
**A.** increased plasma stability

**Q.** What about the “ability to inhibit ischemic damage (potency, CK release)” value (cardiac tissue) of the same molecule?
**A.** Maintains In Vitro Potency

**Q.** For `CC[C@H](C)[C@H](NC(=O)[C@@H]1CCCN1C(=O)[C@H](C)NC(=O)[C@H](CC(=O)O)NC(=O)[C@H](Cc1c[nH]cn1)NC(=O)[C@@H](N)CSSC[C@H](N)C(=O)N[C@@H](Cc1ccc(O)cc1)C(=O)NCC(=O)N[C@@H](CCCNC(=N)N)C(=O)N[C@@H](CCCCN)C(=O)N[C@@H](CCCCN)C(=O)N[C@@H](CCCNC(=N)N)C(=O)N[C@@H](CCCNC(=N)N)C(=O)N[C@@H](CCC(N)=O)C(=O)N[C@@H](CCCNC(=N)N)C(=O)N[C@@H](CCCNC(=N)N)C(=O)N[C@@H](CCCNC(=N)N)C(=O)O)C(=O)NCC(=O)N[C@@H](Cc1ccc(O)cc1)C(=O)N[C@@H](CC(=O)O)C(=O)O` [KAI-9706], which “% parent remaining at 15 mins” value [5] is on record?
**A.** 1%

**Q.** For Ac-EAVSLKPTGGYGRKKRRQRRR-NH2 [KP-1678], which “stability in human serum (percent remaining over time)” value [6] is on record?
**A.** increased stability

**Q.** Which “stability in human serum (percent remaining over time)” value [6] does the source give for EAVSLKPTGGYGRKKRRQRRR-NH2 [KP-1633] here?
**A.** increased stability

**Q.** For “KP-1680: linear epsilon PKC inhibitor peptide shown in FIG. 16 (EAVSLKPTGGYGRKKRRQRRR)”, which “degradation products / metabolized forms” value ([6]; serum) is on record?
**A.** sequential cleavage of arginine residues from the C-terminus
